According to patent US8461328B2, “Tricyclic heterocyclic compounds, compositions and methods of use thereof” (Genentech, Inc., priority 2010, dated 2013):

Legend:
Format in all cases: biochemical
JAK2 = biological target: T1, JAK2 (Homo sapiens, UniProt O60674); experiment: JAK2 inhibition (Table 4); settings: read-out: JAK2 Ki
T1 construct: made in house; host or cells: SF9 insect cells (baculovirus)

TYK2 = biological target: T2, TYK2 (Homo sapiens, UniProt P29597); experiment: TYK2 inhibition (Table 4)
T2 construct: made in house; host or cells: SF9 insect cells (baculovirus)
T2 sequence (P29597 873-1187): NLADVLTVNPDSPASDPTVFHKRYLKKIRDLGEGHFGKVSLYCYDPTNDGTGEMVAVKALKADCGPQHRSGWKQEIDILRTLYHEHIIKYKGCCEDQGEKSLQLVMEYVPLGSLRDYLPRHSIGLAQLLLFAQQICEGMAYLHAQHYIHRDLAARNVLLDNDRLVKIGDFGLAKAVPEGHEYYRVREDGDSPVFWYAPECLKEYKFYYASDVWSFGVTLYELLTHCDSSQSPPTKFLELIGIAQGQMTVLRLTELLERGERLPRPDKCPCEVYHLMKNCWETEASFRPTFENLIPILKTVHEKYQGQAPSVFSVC

JAK1 = biological target: T3, JAK1 (Homo sapiens, UniProt P23458); experiment: JAK1 inhibition (Table 4); settings: read-out: JAK1 Ki
T3 construct: made in house; host or cells: SF9 insect cells (baculovirus)

JAK3 = biological target: T4, JAK3 (Homo sapiens, UniProt P52333); experiment: JAK3 inhibition (Table 4); settings: read-out: JAK3 Ki
T4 construct: made in house; host or cells: SF9 insect cells (baculovirus)
T4 sequence (P52333 783-1124): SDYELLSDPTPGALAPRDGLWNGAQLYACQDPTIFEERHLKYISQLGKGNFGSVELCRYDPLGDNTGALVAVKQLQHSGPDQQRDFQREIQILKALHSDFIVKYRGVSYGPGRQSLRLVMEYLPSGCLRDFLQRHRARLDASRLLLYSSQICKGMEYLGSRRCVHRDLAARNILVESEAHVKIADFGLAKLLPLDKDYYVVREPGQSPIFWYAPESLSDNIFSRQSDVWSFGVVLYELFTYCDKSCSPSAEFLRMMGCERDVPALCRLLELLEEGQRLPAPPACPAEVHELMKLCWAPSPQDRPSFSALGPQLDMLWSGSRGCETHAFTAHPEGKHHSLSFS

T1 sequence (O60674 812-1132): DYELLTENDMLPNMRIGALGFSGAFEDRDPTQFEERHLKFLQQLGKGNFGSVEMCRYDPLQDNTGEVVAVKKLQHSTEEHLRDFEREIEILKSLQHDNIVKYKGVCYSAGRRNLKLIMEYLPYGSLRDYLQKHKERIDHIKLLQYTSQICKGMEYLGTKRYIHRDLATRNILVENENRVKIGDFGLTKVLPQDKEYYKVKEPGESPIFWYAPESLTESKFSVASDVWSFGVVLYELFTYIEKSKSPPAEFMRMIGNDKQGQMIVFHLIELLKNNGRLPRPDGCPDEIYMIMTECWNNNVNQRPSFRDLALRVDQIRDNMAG
T3 sequence (P23458 852-1154): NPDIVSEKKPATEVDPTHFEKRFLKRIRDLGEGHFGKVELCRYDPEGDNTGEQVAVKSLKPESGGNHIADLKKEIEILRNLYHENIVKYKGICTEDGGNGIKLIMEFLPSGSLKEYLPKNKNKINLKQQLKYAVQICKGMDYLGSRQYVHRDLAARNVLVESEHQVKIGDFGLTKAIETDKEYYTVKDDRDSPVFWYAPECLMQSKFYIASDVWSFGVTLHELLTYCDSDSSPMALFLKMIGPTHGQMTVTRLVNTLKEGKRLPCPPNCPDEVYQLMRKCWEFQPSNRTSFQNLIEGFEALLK

SMILES	Ki (JAK2)	Ki (TYK2)	Ki (JAK1)	Ki (JAK3)
C[C@@H](O)c1nc2cnc3[nH]ccc3c2n1[C@H]1CCNC1 [Example 926, (R)-1-((S)-1-Pyrrolidin-3-yl-1,6-dihydro-1,3,5,6-tetraaza-as-indacen-2-yl)-ethanol]	2.47 µM	1.6 µM	0.0352 µM	1.15 µM
CCOC(=O)N1CCC(n2c([C@@H](C)O)nc3cnc4[nH]ccc4c32)CC1 [Example 927]	0.613 µM	0.711 µM	0.176 µM	0.383 µM
Cc1nc2cnc3[nH]ccc3c2n1C1CN2CCC1CC2 (stereo not shown) [Example 928, 1-(1-Aza-bicyclo[2.2.2]oct-3-yl)-2-methyl-1,6-dihydro-1,3,5,6-tetraaza-as-indacene]	0.206 µM	0.887 µM	0.125 µM	0.449 µM
COC(=O)N1CCC(n2c([C@@H](C)O)nc3cnc4[nH]ccc4c32)CC1 [Example 929, 4-[2-((R)-1-Hydroxy-ethyl)-6H-1,3,5,6-tetraaza-as-indacen-1-yl]-piperidine-1-carboxylic acid methyl ester]	0.578 µM	0.281 µM	0.106 µM	0.185 µM
C[C@@H](O)c1nc2cnc3[nH]ccc3c2n1[C@H]1CCN(S(C)(=O)=O)C1 [Example 930, (R)-1-[1-((S)-1-Methanesulfonyl-pyrrolidin-3-yl)-1,6-dihydro-1,3,5,6-tetraaza-as-indacen-2-yl]-ethanol]	0.95 µM	0.347 µM	0.0872 µM	0.19 µM
CCOC(=O)N1CC[C@H](n2c([C@@H](C)O)nc3cnc4[nH]ccc4c32)C1 [Example 931, (S)-3-[2-((R)-1-Hydroxy-ethyl)-6H-1,3,5,6-tetraaza-as-indacen-1-yl]-pyrrolidine-1-carboxylic acid ethyl ester]	1.86 µM	0.232 µM	0.0651 µM	0.904 µM
OC1CCN(Cc2nc3cnc4[nH]ccc4c3n2C2CCCCC2)CC1 [Example 932, 1-(1-Cyclohyl-1,6-dihydro-1,3,5,6-tetraaza-as-indacen-2-ylmethyl)-piperidin-4-ol]	0.579 µM	0.357 µM	0.041 µM	1.05 µM
CC(O)CN1CCC(n2c(C(C)O)nc3cnc4[nH]ccc4c32)CC1 (stereo not shown) [Example 934, 1-{4-[2-(1-Hydroxy-ethyl)-6H-1,3,5,6-tetraaza-as-indacen-1-yl]-piperidin-1-yl}-propan-2-ol]	0.669 µM	0.465 µM	0.0129 µM	0.549 µM
Cc1noc(CN2CC[C@H](n3c([C@@H](C)O)nc4cnc5[nH]ccc5c43)C2)n1 [Example 935, (R)-1-{1-[(S)-1-(3-Methyl-[1,2,4]oxadiazol-5-ylmethyl)-pyrrolidin-3-yl]-1,6-dihydro-1,3,5,6-tetraaza-as-indacen-2-yl}-ethanol]	1.06 µM	0.542 µM	0.0655 µM	0.394 µM
CC(O)c1nc2cnc3[nH]ccc3c2n1C1CC2CCC1O2 (stereo not shown) [Example 938, 1-[1-(7-Oxa-bicyclo[2.2.1]hept-2-yl)-1,6-dihydro-1,3,5,6-tetraaza-as-indacen-2-yl]-ethanol]	0.263 µM	0.175 µM	0.0883 µM	0.119 µM
c1cc2c(ncc3ncn([C@H]4[C@@H]5CNC[C@@H]54)c32)[nH]1 [Example 944, (1R,5S,6S)-1-(3-Aza-bicyclo[3.1.0]hex-6-yl)-1,6-dihydro-1,3,5,6-tetraaza-as-indacene]	0.886 µM	1.81 µM	0.229 µM	2.44 µM

The next lines start with the values.

Ki (JAK2)	Ki (TYK2)	Ki (JAK1)	Ki (JAK3)	SMILES
0.116 µM	0.191 µM	0.0131 µM	0.0709 µM	CC(=O)NCc1nc2cnc3[nH]ccc3c2n1C1CCN(CCF)CC1 [Example 921, N-{1-[1-(2-Fluoro-ethyl)-piperidin-4-yl]-1,6-dihydro-1,3,5,6-tetraaza-as-indacen-2-ylmethyl}-acetamide]
0.0498 µM	0.146 µM	0.0133 µM	0.0516 µM	O=S1(=O)CCCN1CCc1nc2cnc3[nH]ccc3c2n1C1CCCCC1 [Example 922, 1-Cyclohyl-2-[2-(1,1-dioxo-1-isothiazolidin-2-yl)-ethyl]-1,6-dihydro-1,3,5,6-tetraaza-as-indacene]
0.15 µM	0.363 µM	0.0171 µM	0.0374 µM	C[C@@H](O)c1nc2cnc3[nH]ccc3c2n1C1CCN(Cc2ncco2)CC1 [Example 923, (R)-1-[1-(1-Oxazol-2-ylmethyl-piperidin-4-yl)-1,6-dihydro-1,3,5,6-tetraaza-as-indacen-2-yl]-ethanol]
0.0957 µM	0.0725 µM	0.0177 µM	0.0541 µM	O=C(NCc1nc2cnc3[nH]ccc3c2n1C1CCCCC1)C1CCC1 [Example 924, Cyclobutanecarboxylic acid (1-cyclohyl-1,6-dihydro-1,3,5,6-tetraaza-as-indacen-2-ylmethyl)-amide]
0.252 µM	0.338 µM	0.03 µM	0.555 µM	CS(=O)(=O)NCc1nc2cnc3[nH]ccc3c2n1C1CC2CCC1O2 (stereo not shown) [Example 925, N-[1-(7-Oxa-bicyclo[2.2.1]hept-2-yl)-1,6-dihydro-1,3,5,6-tetraaza-as-indacen-2-ylmethyl]-methanesulfonamide]
0.0385 µM	0.0545 µM	0.00184 µM	0.0112 µM	CC(O)c1nc2cnc3[nH]ccc3c2n1C1CCN(Cc2cnco2)CC1F (stereo not shown) [Example 933, 1-[1-(3-Fluoro-1-oxazol-5-ylmethyl-piperidin-4-yl)-1,6-dihydro-1,3,5,6-tetraaza-as-indacen-2-yl]-ethanol]
0.00822 µM	0.00292 µM	0.00057 µM	0.0187 µM	C[C@@H](O)c1nc2cnc3[nH]ccc3c2n1C1CC2CCC1C2 (stereo partly drawn) [Example 943, (R)-1-(1-Bicyclo[2.2.1]hept-2-yl-1,6-dihydro-1,3,5,6-tetraaza-as-indacen-2-yl)-ethanol]
0.0976 µM	0.338 µM	0.0399 µM	0.344 µM	Cn1ncc2c1CC[C@H](n1cnc3cnc4[nH]ccc4c31)C2 [Example 954, 1-((S)-1-Methyl-4,5,6,7-tetrahydro-1H-indazol-5-yl)-1,6-dihydro-1,3,5,6-tetraaza-as-indacene]
0.0089 µM	0.0536 µM	0.00767 µM	0.109 µM	Cn1ncc2c1CC[C@@H](n1cnc3cnc4[nH]ccc4c31)C2 [Example 955, 1-((R)-1-Methyl-4,5,6,7-tetrahydro-1H-indazol-5-yl)-1,6-dihydro-1,3,5,6-tetraaza-as-indacene]
0.0602 µM	0.174 µM	0.05 µM	0.21 µM	CC(C)(O)[C@H]1CC[C@@H](n2cnc3cnc4[nH]ccc4c32)CC1 [Example 957, Cis-2-[4-(6H-1,3,5,6-Tetraaza-as-indacen-1-yl)-cyclohexyl]-propan-2-ol]
0.0063 µM	0.038 µM	0.00463 µM	0.0865 µM	N#CCCn1ncc2c1CC[C@H](n1cnc3cnc4[nH]ccc4c31)C2 [Example 959, 3-[(S)-5-(6H-1,3,5,6-Tetraaza-as-indacen-1-yl)-4,5,6,7-tetrahydro-indazol-1-yl]-propionitrile]
